Values of other authors as cited in patent US20240238221A1, “[…] TREATING NEUROPATHIC PAIN IN COVID-19 PATIENTS” (Grünenthal GmbH, priority 2021, published 2024).

Assays:
serotonin reuptake = details: unlike tramadol
[1] = in the investigated dose ranges; vs. morphine, oxycodone or hydromorphone
[2] = at analgesic doses vs. Morphine
[3] = tested on: UGT1A6, UGT1A9 and UGT2B7; details: mediated via UGT mainly UGT1A6, UGT1A9 and UGT2B7 isoforms

SMILES: CC[C@@H](c1cccc(O)c1)[C@@H](C)CN(C)C [Tapentadol]
- risk of drug-drug interactions at the CYP450 level (CYP450): low risk
- serotonin reuptake inhibition (serotonin reuptake): only weak serotonin reuptake inhibition
- analgesic efficacy [1]: comparable to that of typical strong opioids
- immunosuppressive activity [2]: lower immunosuppressive activity
- major elimination pathway [3]: conjugation with glucuronic acid
